Assay results reported in patent publication US12551472B2, “Compositions and methods using trigonelline to produce intracellular nicotinamide adenine dinucleotide (NAD+) for treating or preventing physiological disorders or states” (SOCIETE DES PRODUITS NESTLE S.A., priority 2019, dated 2026).

Columns and labels:
[1] = tested on: Human Skeletal Muscle Myotubes (HSMM); details: 500 μM, 6 h, relative to control, LC-MS (FIG. 2A)
Procedure: Human primary myoblasts from two different donors were seeded in 6 well plates at a density of 200′000 cells per well in skeletal muscle growth medium (SKM-M, AMSbio). After one day, the differentiation was induced by a medium change for 4 days using differentiation culture medium (Gibco No. 31330-028). Cells were treated with isotopically labelled trigonelline (^13C carbonyl; 3^2H on methyl) for 6 h.
Cell extracts were separated on a Vanquish UHPLC+focused LC system (Thermo Scientific) with a hydrophilic liquid chromatography (HILIC) iHILIC-Fusion(P) column (Hilicon) carrying the dimensions 150×2.1 mm, 5 μm and a guard column (iHILIC-fusion(P), Hilicon) in front. The separation of metabolites was achieved by applying a linear solvent gradient in normal phase at 0.25 mL/min flow rate and 35° C. of temperature.
The eluting metabolites were analyzed with an Orbitrap Fusion Lumos mass spectrometer (Thermo Scientific) with a heated electrospray ionization (H-ESI) source in positive and negative mode at a resolution of 60,000 at m/z of 200. Instrument control and data analysis were conducted using Xcalibur (Thermo Scientific).

[2] = tested on: RW1596 (myo-3p::GFP) worms; details: 1 mM trigonelline chloride, 11 day old worms vs age matched control
Procedure: RW1596 (myo-3p::GFP) worms were collected at Day 1 (young adults) and at Day 11 (aged animals) for muscle integrity assessment. Worms were immobilized with tetramisole and analyzed by confocal microscopy, to assess the muscle fibers morphology shown by GFP fluorescence imaging. Trigonelline treatment with 1 mM trigonelline chloride and experimental measurements were started at Day 1 of wild type N2 worm adulthood, in a regimen of chronic exposure till experiments termination.

C. elegans [3] = details: 1 mM trigonelline chloride, day 8 old worms, vs control (FIG. 8)
Procedure: Absolute quantification of the mtDNA copy number in wild type N2 worms was performed by real-time PCR. Relative values for nduo-1, and act-1 were compared within each sample to generate a ratio representing the relative level of mitochondrial DNA per nuclear genome. The average of at least two technical repeats was used for each biological data point. Each experiment was performed on at least ten independent biological samples (individual worms). Trigonelline treatment with 1 mM trigonelline chloride and experimental measurements were started at Day 1 of wild type N2 worm adulthood, in a regimen of chronic exposure till experiments termination.

[4] = tested on: Human Skeletal Muscle Myotubes (HSMM); experiment: Colorimetric NAD+ quantification in differentiated human primary myoblasts; assay type: cell-based; details: 16 h, different doses (FIG. 4)
Procedure: After one day, the differentiation is induced by a medium change for 4 days. Cells were treated with synthetic trigonelline monohydrate (FIG. 4A) or with Fenugreek seed extract enriched in trigonelline containing 40.45% trigonelline (FIG. 4B) for 16 h at difference doses. NAD^+ was measured using colorimetric NAD^+ quantification assay (Biovision NAD^+/NADH Quantitation Colorimetric Kit #k337-100).

C57BL/6JRj male mice = experiment: Enzymatic NAD+ measurement in mouse liver after oral gavage; assay type: in vivo; details: equimolar of 300 mg/kg trigonelline, 120 minutes (FIG. 5)
Procedure: 10 weeks C57BL/6JRj male mice received trigonelline (sigma #T5509) or fenugreek seed extract enriched in trigonelline (40.45% trigonelline) by oral gavage (equimolar of 300 mg/kg trigonelline, n=8/group). After 120 minutes treatment, the liver was harvested and flash frozen in liquid nitrogen. NAD^+ was measured in liver using an enzymatic method adapted from Dall, M., et al., Mol Cell Endocrinol, 2018. 473: p. 245-256.

C. elegans [5] = details: 1 mM, chronic exposure from Day 1 adulthood, wild type N2 (FIG. 7A)
Procedure: Worm lifespan tests were performed using about 100 animals per condition and scored manually every other day. Trigonelline treatment and experimental measurements were started at Day 1 of wild type N2 worm adulthood, in a regimen of chronic exposure till experiments termination.

C. elegans [6] = tested on: C. elegans
Procedure: C. elegans mobility test was performed using the Movement Tracker software (Mouchiroud, L. et al. Curr Protoc Neurosci 77, 8.37.1-8.37.21 (2016)). The experiments were repeated at least twice. Trigonelline treatment and experimental measurements were started at Day 1 of wild type N2 worm adulthood, in a regimen of chronic exposure till experiments termination.

C. elegans [7] = details: 1 mM, day 8 and day 11 old worms, vs control (FIG. 7D)
Source text: 45 to 60 worms per condition were manually scored for mobility after poking. Worms that were unable to respond to any repeated stimulation were scored as dead. […] Trigonelline treatment and experimental measurements were started at Day 1 of wild type N2 worm adulthood, in a regimen of chronic exposure til experiments termination.

## C[n+]1cccc(C(=O)[O-])c1 [trigonelline, 1-methylpyridin-1-ium-3-carboxylate]
[1]
  NAD+ levels: enhancement
[2]
  Myofibrillar structure (GFP-tagged myosin): improved more organized myofibrillar structure
C. elegans [3]
  Mitochondrial expression relative to nuclear expression (nduo-1/act-1, mt/nDNA): higher

## C[n+]1cccc(C(=O)O)c1.[OH-] [chemically synthesized trigonelline]
[4]
  NAD+ content compared to the control: significant increase
C57BL/6JRj male mice
  NAD+ content in the liver compared to the control: significant increase

## C[n+]1cccc(C(=O)O)c1 [trigonelline chloride]
C. elegans [5]
  Increase in lifespan: 21%
C. elegans [6]; 1 mM (FIG. 7C)
  Distance travelled in advanced aging phase compared to control: significantly increased
C. elegans [6]; 1 mM, from day 1 adulthood (FIG. 7B)
  Mean speed compared to the control: increased
C. elegans [7]
  Stimulated mobility score (worms responsive to a physical stimulus): more responsive
